Numbers after ± are expanded uncertainties.
Test: mn = molality of the nth substance listed, in mol/kg
Details: 101 kPa, Liquid, Alternating current cell with electrodes

C[N+](C)(C)CCO.O=C([O-])C(F)(F)C(F)(F)C(F)(F)C(F)(F)F [(2-hydroxyethyl)trimethylammonium perfluoropentanoate] + O
Details | electrical conductivity [S/m]
293.15 K, m1 = 0.000529 | 0.0033 ± 0.0002
293.15 K, m1 = 0.001164 | 0.0074 ± 0.0004
293.15 K, m1 = 0.001886 | 0.012 ± 0.0007
293.15 K, m1 = 0.002281 | 0.0144 ± 0.0009
293.15 K, m1 = 0.002766 | 0.0174 ± 0.001
293.15 K, m1 = 0.003311 | 0.0207 ± 0.0012
293.15 K, m1 = 0.003805 | 0.0236 ± 0.0014
293.15 K, m1 = 0.004377 | 0.0271 ± 0.0016
293.15 K, m1 = 0.004908 | 0.0302 ± 0.0018
293.15 K, m1 = 0.005409 | 0.033 ± 0.002
293.15 K, m1 = 0.005979 | 0.0364 ± 0.0022
293.15 K, m1 = 0.006697 | 0.0404 ± 0.0024
293.15 K, m1 = 0.007467 | 0.0447 ± 0.0027
293.15 K, m1 = 0.008082 | 0.0481 ± 0.0029
293.15 K, m1 = 0.00858 | 0.0508 ± 0.003
293.15 K, m1 = 0.009905 | 0.058 ± 0.0035
293.15 K, m1 = 0.01142 | 0.066 ± 0.004
293.15 K, m1 = 0.0124 | 0.0711 ± 0.0043
293.15 K, m1 = 0.01324 | 0.0753 ± 0.0045
293.15 K, m1 = 0.01399 | 0.0792 ± 0.0048
293.15 K, m1 = 0.01513 | 0.085 ± 0.0051
293.15 K, m1 = 0.01598 | 0.0891 ± 0.0053
293.15 K, m1 = 0.01695 | 0.0936 ± 0.0056
293.15 K, m1 = 0.01789 | 0.098 ± 0.0059
293.15 K, m1 = 0.01884 | 0.102 ± 0.0062
293.15 K, m1 = 0.01994 | 0.108 ± 0.0065
293.15 K, m1 = 0.02076 | 0.112 ± 0.0067
293.15 K, m1 = 0.02179 | 0.116 ± 0.007
293.15 K, m1 = 0.02264 | 0.12 ± 0.0072
293.15 K, m1 = 0.02348 | 0.123 ± 0.0074
293.15 K, m1 = 0.0245 | 0.128 ± 0.0077
298.15 K, m1 = 0.00173 | 0.0127 ± 0.0008
298.15 K, m1 = 0.003076 | 0.0222 ± 0.0013
298.15 K, m1 = 0.004761 | 0.0337 ± 0.002
298.15 K, m1 = 0.006222 | 0.0434 ± 0.0026
298.15 K, m1 = 0.007398 | 0.0509 ± 0.0031
298.15 K, m1 = 0.008599 | 0.0589 ± 0.0035
298.15 K, m1 = 0.01005 | 0.0687 ± 0.0041
298.15 K, m1 = 0.01198 | 0.0799 ± 0.0048
298.15 K, m1 = 0.01368 | 0.0892 ± 0.0054
298.15 K, m1 = 0.01543 | 0.0996 ± 0.006
298.15 K, m1 = 0.01692 | 0.108 ± 0.0065
298.15 K, m1 = 0.0184 | 0.116 ± 0.007
298.15 K, m1 = 0.02111 | 0.131 ± 0.0079
298.15 K, m1 = 0.02244 | 0.138 ± 0.0083
298.15 K, m1 = 0.02415 | 0.148 ± 0.0089
298.15 K, m1 = 0.02609 | 0.158 ± 0.009
298.15 K, m1 = 0.02818 | 0.17 ± 0.01
298.15 K, m1 = 0.031 | 0.183 ± 0.011
298.15 K, m1 = 0.03389 | 0.198 ± 0.012
298.15 K, m1 = 0.03746 | 0.215 ± 0.013
298.15 K, m1 = 0.04011 | 0.228 ± 0.014
298.15 K, m1 = 0.04312 | 0.245 ± 0.015
303.15 K, m1 = 0.000602 | 0.005 ± 0.0003
303.15 K, m1 = 0.001118 | 0.0092 ± 0.0006
303.15 K, m1 = 0.001883 | 0.0153 ± 0.0009
303.15 K, m1 = 0.002669 | 0.0214 ± 0.0013
303.15 K, m1 = 0.002939 | 0.0235 ± 0.0014
303.15 K, m1 = 0.003765 | 0.0297 ± 0.0018
303.15 K, m1 = 0.004158 | 0.0325 ± 0.002
303.15 K, m1 = 0.004947 | 0.0388 ± 0.0023
303.15 K, m1 = 0.005615 | 0.0446 ± 0.0027
303.15 K, m1 = 0.006164 | 0.0494 ± 0.003
303.15 K, m1 = 0.006758 | 0.0518 ± 0.0031
303.15 K, m1 = 0.007514 | 0.0567 ± 0.0034
303.15 K, m1 = 0.008082 | 0.0606 ± 0.0036
303.15 K, m1 = 0.008631 | 0.0643 ± 0.0039
303.15 K, m1 = 0.009197 | 0.0673 ± 0.004
303.15 K, m1 = 0.01012 | 0.0743 ± 0.0045
303.15 K, m1 = 0.01148 | 0.0832 ± 0.005
303.15 K, m1 = 0.01208 | 0.0872 ± 0.0052
303.15 K, m1 = 0.0126 | 0.0906 ± 0.0054
303.15 K, m1 = 0.0131 | 0.0936 ± 0.0056
303.15 K, m1 = 0.01373 | 0.0973 ± 0.0058
303.15 K, m1 = 0.01442 | 0.102 ± 0.0061
303.15 K, m1 = 0.01495 | 0.105 ± 0.0063
303.15 K, m1 = 0.01641 | 0.114 ± 0.0069
303.15 K, m1 = 0.01705 | 0.118 ± 0.0071
303.15 K, m1 = 0.01772 | 0.121 ± 0.0073
303.15 K, m1 = 0.01824 | 0.124 ± 0.0075
303.15 K, m1 = 0.01885 | 0.128 ± 0.0077
303.15 K, m1 = 0.01941 | 0.131 ± 0.0079
303.15 K, m1 = 0.01993 | 0.134 ± 0.008
303.15 K, m1 = 0.02055 | 0.138 ± 0.0083
303.15 K, m1 = 0.02116 | 0.142 ± 0.0085
303.15 K, m1 = 0.02184 | 0.146 ± 0.0088
303.15 K, m1 = 0.02259 | 0.15 ± 0.009
303.15 K, m1 = 0.02308 | 0.153 ± 0.0092
303.15 K, m1 = 0.0237 | 0.157 ± 0.0094
303.15 K, m1 = 0.0247 | 0.164 ± 0.0098
303.15 K, m1 = 0.02557 | 0.168 ± 0.01
308.15 K, m1 = 0.000318 | 0.0029 ± 0.0002
308.15 K, m1 = 0.000786 | 0.007 ± 0.0004
308.15 K, m1 = 0.001299 | 0.0115 ± 0.0007
308.15 K, m1 = 0.001909 | 0.0169 ± 0.001
308.15 K, m1 = 0.002425 | 0.021 ± 0.0013
308.15 K, m1 = 0.002911 | 0.0256 ± 0.0015
308.15 K, m1 = 0.003184 | 0.0277 ± 0.0017
308.15 K, m1 = 0.003945 | 0.035 ± 0.0021
308.15 K, m1 = 0.004657 | 0.0404 ± 0.0024
308.15 K, m1 = 0.005206 | 0.0449 ± 0.0027
308.15 K, m1 = 0.005836 | 0.0493 ± 0.003
308.15 K, m1 = 0.006331 | 0.0529 ± 0.0032
308.15 K, m1 = 0.006772 | 0.0563 ± 0.0034
308.15 K, m1 = 0.007443 | 0.0629 ± 0.0038
308.15 K, m1 = 0.008421 | 0.0711 ± 0.0043
308.15 K, m1 = 0.008974 | 0.0763 ± 0.0046
308.15 K, m1 = 0.009871 | 0.0832 ± 0.005
308.15 K, m1 = 0.01044 | 0.0864 ± 0.0052
308.15 K, m1 = 0.01092 | 0.0897 ± 0.0054
308.15 K, m1 = 0.01159 | 0.0936 ± 0.0056
308.15 K, m1 = 0.01221 | 0.0982 ± 0.0059
308.15 K, m1 = 0.01248 | 0.101 ± 0.006
308.15 K, m1 = 0.01314 | 0.104 ± 0.0063
308.15 K, m1 = 0.01361 | 0.108 ± 0.0065
308.15 K, m1 = 0.01442 | 0.114 ± 0.0068
308.15 K, m1 = 0.01492 | 0.119 ± 0.0072
308.15 K, m1 = 0.01568 | 0.125 ± 0.0075
308.15 K, m1 = 0.0164 | 0.13 ± 0.0078
308.15 K, m1 = 0.01694 | 0.134 ± 0.008
308.15 K, m1 = 0.01787 | 0.14 ± 0.0084
308.15 K, m1 = 0.01861 | 0.145 ± 0.0087
308.15 K, m1 = 0.01941 | 0.151 ± 0.0091
308.15 K, m1 = 0.02104 | 0.162 ± 0.0097
308.15 K, m1 = 0.02193 | 0.168 ± 0.01
308.15 K, m1 = 0.02283 | 0.173 ± 0.01
308.15 K, m1 = 0.02369 | 0.178 ± 0.011
308.15 K, m1 = 0.02427 | 0.182 ± 0.011
308.15 K, m1 = 0.02502 | 0.188 ± 0.011
308.15 K, m1 = 0.02563 | 0.192 ± 0.011
313.15 K, m1 = 0.000187 | 0.0015 ± 0.0001
313.15 K, m1 = 0.000688 | 0.0067 ± 0.0004
313.15 K, m1 = 0.001827 | 0.0169 ± 0.001
313.15 K, m1 = 0.002361 | 0.0217 ± 0.0013
313.15 K, m1 = 0.002859 | 0.0266 ± 0.0016
313.15 K, m1 = 0.003424 | 0.0322 ± 0.0019
313.15 K, m1 = 0.00399 | 0.0371 ± 0.0022
313.15 K, m1 = 0.004604 | 0.0421 ± 0.0025
313.15 K, m1 = 0.005344 | 0.0499 ± 0.003
313.15 K, m1 = 0.005863 | 0.0548 ± 0.0033
313.15 K, m1 = 0.006345 | 0.0593 ± 0.0036
313.15 K, m1 = 0.006846 | 0.064 ± 0.0038
313.15 K, m1 = 0.008054 | 0.074 ± 0.0044
313.15 K, m1 = 0.008628 | 0.079 ± 0.0047
313.15 K, m1 = 0.009481 | 0.0864 ± 0.0052
313.15 K, m1 = 0.009912 | 0.0907 ± 0.0054
313.15 K, m1 = 0.01048 | 0.0955 ± 0.0057
313.15 K, m1 = 0.01099 | 0.0999 ± 0.006
313.15 K, m1 = 0.01153 | 0.104 ± 0.0063
313.15 K, m1 = 0.0121 | 0.11 ± 0.0066
313.15 K, m1 = 0.01268 | 0.114 ± 0.0069
313.15 K, m1 = 0.01328 | 0.119 ± 0.0072
313.15 K, m1 = 0.01388 | 0.124 ± 0.0075
313.15 K, m1 = 0.01459 | 0.13 ± 0.0078
313.15 K, m1 = 0.01545 | 0.136 ± 0.0082
313.15 K, m1 = 0.01599 | 0.141 ± 0.0084
313.15 K, m1 = 0.0169 | 0.148 ± 0.0089
313.15 K, m1 = 0.01817 | 0.157 ± 0.0094
313.15 K, m1 = 0.01879 | 0.162 ± 0.0097
313.15 K, m1 = 0.01965 | 0.169 ± 0.01
313.15 K, m1 = 0.02019 | 0.172 ± 0.01
313.15 K, m1 = 0.02082 | 0.177 ± 0.011
313.15 K, m1 = 0.02134 | 0.18 ± 0.011
313.15 K, m1 = 0.02194 | 0.184 ± 0.011
313.15 K, m1 = 0.02255 | 0.19 ± 0.011
313.15 K, m1 = 0.02328 | 0.195 ± 0.012
313.15 K, m1 = 0.02409 | 0.2 ± 0.012

From the NIST ThermoML archive (doi:10.1021/acs.jced.6b00455)
